Tests used:
[1] = Concentration study: stability of pyruvic acid solutions in water at higher concentrations; assay type: physicochemical; set-up: unit not given here; settings: light, about 22° C. to about 26° C.
Description: Each of these commercial solutions were subjected to light for 6-weeks at temperatures ranging from about 22° C. to about 26° C. At each of the concentrations listed below, it was discovered that the pyruvic acid solutions were stable.

[2] = background statement; cited from earlier work
[3] = Shelf storage stability of [1-^13C]pyruvic acid in water, by ^1H and ^13C NMR; assay type: physicochemical; settings: 0.025M in water
Description: Samples of isotopically labeled [1-^13C]pyruvic acid, having Formula VI and synthesized as discussed immediately below, were subjected to various conditions as depicted in Table 1, in order to establish the compound's shelf storage stability.
The resulting [1-^13C]pyruvic acid was tested as follows in Table 1:
^1H and ^13C NMR spectra of the distilled [1-^13C]pyruvic acid in water (0.025M) were acquired at the onset of the study and prior to exposing the samples to the various conditions specified in Table 1. ^1H and ^13C NMR spectra were again acquired for each of the samples after being exposed to the aforementioned conditions on a weekly basis for 12-weeks. The spectra acquired after exposure were compared visually and appeared to remain unchanged as compared with the spectra acquired prior to exposure, i.e. the spectra were as expected for [1-^13C]pyruvic acid in water. As such, it was concluded that each of the samples were shelf stable. Similarly, ^1H and ^13C NMR spectra acquired after 17-weeks of exposure remained unchanged as compared with the spectra acquired prior to exposure.

[4] = Titration of aqueous sample 4 with sodium hydroxide, composition by HPLC; assay type: physicochemical; settings: sample 4 titrated with sodium hydroxide to pH of about 6.2
From the text: The molarity of sample 4 was confirmed to be 0.025M by titrating the aqueous sample with sodium hydroxide. […] It was also discovered that at pHs greater than 5.8, such as at a pH of about 6.2, some of the pyruvic acid was present in the form of a dimerized sodium salt. […] As such, it was discovered that to minimize dimmer formation, it may be necessary to control the pH of [1-^13C]pyruvate solutions, and in particular, any aqueous solution should be maintained at a pH of about 6.5 or less, more preferably 6.0 or less, and even more preferably 5.8 or less.

[5] = Sample 1: −10° C., dark, NMR spectra unchanged
[6] = Sample 3: room temperature (about 22° C. to about 26° C.), dark
[7] = Sample 4: room temperature (about 22° C. to about 26° C.), light

Row | Stability after 6-weeks ([1]; concentration 2.3 in water) | Stability after 6-weeks ([1]; concentration 2.8 in water) | Stability after 6-weeks ([1]; concentration 3.8 in water) | Stability after 6-weeks ([1]; concentration 5.7 in water) | Stability after 6-weeks ([1]; concentration 11.3 in water) | Shelf stability, 12 weeks [3, 5] | Shelf stability, 17 weeks [3, 5] | Shelf stability, 12 weeks ([3]; Sample 2: 4° C., dark) | Shelf stability, 17 weeks ([3]; Sample 2: 4° C., dark) | Shelf stability, 12 weeks [3, 6] | Shelf stability, 17 weeks [3, 6] | Shelf stability, 12 weeks [3, 7] | Shelf stability, 17 weeks [3, 7] | Content of dimerized [1-^13C]pyruvate salt by HPLC [4] | Content of sodium [1-^13C]pyruvate by HPLC [4] | Share of the pyruvic acid accounted for by the dimerized salt [4] | Structure (SMILES) | Solubility in water [2]
1 | Stable | Stable | Stable | Stable | Stable | – | – | – | – | – | – | – | – | – | – | – | CC(=O)C(=O)O [Formula VIB, 2-oxopropanoic acid] | soluble in water
2 | – | – | – | – | – | Stable | Stable | Stable | Stable | Stable | Stable | Stable | Stable | 2-4% | 89% | 4-6% | CC(=O)[13C](=O)O [[1-^13C]pyruvic acid] | –

From patent US20080171893A1, “Isotopically labeled alpha-keto acids and esters” (Spectra Gases, Inc., priority 2006, published 2008)
